Experimental data from ChEMBL document CHEMBL1201862, “PubChem BioAssay data set” (2004).
The source made the active and inactive calls.

What was measured:
D(1A) dopamine receptor = D(1A) dopamine receptor (Homo sapiens, UniProt P21728); assay: Counterscreening of D4 Antagonists against Dopamine 1 (Human), Confirmatory Assay.; assay type: functional
D(3) dopamine receptor = D(3) dopamine receptor (Homo sapiens, UniProt P35462); assay: Counterscreening of D4 Antagonists against Dopamine 3 DRD3 (Human), Confirmatory Assay.; assay type: functional
Sequence of D(3) dopamine receptor (P35462 whole entry): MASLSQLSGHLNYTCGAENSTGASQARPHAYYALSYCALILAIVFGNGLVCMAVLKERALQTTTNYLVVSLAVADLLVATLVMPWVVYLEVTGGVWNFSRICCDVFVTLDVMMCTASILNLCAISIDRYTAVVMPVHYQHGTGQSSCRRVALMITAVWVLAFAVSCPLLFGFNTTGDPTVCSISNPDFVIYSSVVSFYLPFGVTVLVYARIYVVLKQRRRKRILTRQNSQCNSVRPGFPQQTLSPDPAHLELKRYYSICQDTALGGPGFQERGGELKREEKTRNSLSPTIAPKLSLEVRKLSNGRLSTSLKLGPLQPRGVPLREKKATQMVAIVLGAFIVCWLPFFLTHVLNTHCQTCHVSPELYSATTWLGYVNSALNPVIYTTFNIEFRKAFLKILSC

D(2) dopamine receptor = D(2) dopamine receptor (Homo sapiens, UniProt P14416); assay: Counterscreening of D4 Antagonists against Dopamine 2S (Human), Confirmatory Assay.; assay type: functional
D(1B) dopamine receptor = D(1B) dopamine receptor (Homo sapiens, UniProt P21918); assay: Counterscreening of D4 Antagonists against Dopamine 5 DRD5 (Human), Confirmatory Assay.; assay type: functional
NADPH oxidase 1 = NADPH oxidase 1 (Homo sapiens, UniProt Q9Y5S8); assay type: functional, cell-based;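 also: Cell-based assay with luminescence read-out, IC50 derived from inhibitor dose-response curves; intracellular ROS from endogenous NOX1 in intact HT29 colon cancer cells; potency of inhibitors that lower the ROS luminescence signal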
[1] = molecular target: Metabotropic glutamate receptor 7 (Homo sapiens, UniProt Q14831); assay: potentiation of glutamate EC20 at mGlu7 – cell-based, calcium mobilization, Galpha15, dose response (AID 743384); assay type: functional
Sequence of Metabotropic glutamate receptor 7 (Q14831 whole entry): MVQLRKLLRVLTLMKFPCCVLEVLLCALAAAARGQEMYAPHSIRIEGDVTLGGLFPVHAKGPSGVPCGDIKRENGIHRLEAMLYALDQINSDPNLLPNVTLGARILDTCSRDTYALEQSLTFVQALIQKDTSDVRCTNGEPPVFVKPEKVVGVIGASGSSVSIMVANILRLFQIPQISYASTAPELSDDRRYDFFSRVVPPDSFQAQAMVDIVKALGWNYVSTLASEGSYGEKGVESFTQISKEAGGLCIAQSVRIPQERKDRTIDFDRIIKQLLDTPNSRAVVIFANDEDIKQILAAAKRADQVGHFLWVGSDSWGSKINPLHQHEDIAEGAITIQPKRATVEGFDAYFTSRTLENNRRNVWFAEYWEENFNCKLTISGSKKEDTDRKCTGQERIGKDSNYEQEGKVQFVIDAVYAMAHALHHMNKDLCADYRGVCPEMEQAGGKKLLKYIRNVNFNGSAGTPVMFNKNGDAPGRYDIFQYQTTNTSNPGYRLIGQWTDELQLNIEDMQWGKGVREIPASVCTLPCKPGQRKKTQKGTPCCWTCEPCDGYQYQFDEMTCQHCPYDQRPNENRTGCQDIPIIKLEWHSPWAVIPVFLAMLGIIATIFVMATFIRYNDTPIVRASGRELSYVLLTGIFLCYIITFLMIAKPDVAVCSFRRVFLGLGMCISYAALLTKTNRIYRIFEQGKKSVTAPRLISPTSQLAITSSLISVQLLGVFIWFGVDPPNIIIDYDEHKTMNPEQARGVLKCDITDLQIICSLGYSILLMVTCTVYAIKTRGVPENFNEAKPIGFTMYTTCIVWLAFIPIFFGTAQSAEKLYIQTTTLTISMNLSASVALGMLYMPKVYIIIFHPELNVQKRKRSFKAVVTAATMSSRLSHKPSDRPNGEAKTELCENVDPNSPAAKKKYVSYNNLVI

[2] = growth inhibition of PfATP4-mutant resistant parasites – NITD609-resistant line, SYBR Green, dry powder, dose response (AID 1159571); assay type: functional, cell-based;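 also: parasites synchronized at ring stage by sorbitol before testing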
[3] = toxicity to human HepG2 hepatoma cells – cell-based, plate reader, dry powder samples, cytotoxicity control, dose response (AID 1159569); assay type: functional;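 also: inhibitor potency with signal falling toward the positive control level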
[4] = P. falciparum Dd2 growth inhibitors, dose response, SYBR Green, cherry-picked samples (AID 1159567); assay type: functional, cell-based
[5] = Dd2 malaria parasite growth inhibition potency – SYBR Green, dry powder samples, dose response (AID 1159566); assay type: functional, cell-based;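 also: potency for growth inhibition with lower SYBR green DNA signal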
[6] = growth inhibition of yeast DHODH-expressing 3D7 parasites – SYBR Green, dry powder samples, dose response (AID 1159570); assay type: functional, cell-based;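 also: parasite growth measured after 72 hours of compound exposure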
[7] = Plasmodium falciparum Dd2 Sybr green parasite growth Measured in Cell-Based and Microorganism Combination System Using Plate Reader - 2153-01_Inhibitor_Dose_DryPowder_Activity_Set3.; assay type: functional
[8] = A549 cell cytotoxicity, dose response, cytotoxicity control, plate reader, cherry-pick, antagonist series (AID 743412); assay type: functional, cell-based
Estrogen receptor beta [9] = molecular target: T1, Estrogen receptor beta (Homo sapiens, UniProt Q92731); assay: blockers of SRC-3 recruitment to ERβ – biochemical, ELISA, streptavidin-HRP readout, orthogonal assay, confirmation (AID 1060)
T1 sequence (Q92731 whole entry): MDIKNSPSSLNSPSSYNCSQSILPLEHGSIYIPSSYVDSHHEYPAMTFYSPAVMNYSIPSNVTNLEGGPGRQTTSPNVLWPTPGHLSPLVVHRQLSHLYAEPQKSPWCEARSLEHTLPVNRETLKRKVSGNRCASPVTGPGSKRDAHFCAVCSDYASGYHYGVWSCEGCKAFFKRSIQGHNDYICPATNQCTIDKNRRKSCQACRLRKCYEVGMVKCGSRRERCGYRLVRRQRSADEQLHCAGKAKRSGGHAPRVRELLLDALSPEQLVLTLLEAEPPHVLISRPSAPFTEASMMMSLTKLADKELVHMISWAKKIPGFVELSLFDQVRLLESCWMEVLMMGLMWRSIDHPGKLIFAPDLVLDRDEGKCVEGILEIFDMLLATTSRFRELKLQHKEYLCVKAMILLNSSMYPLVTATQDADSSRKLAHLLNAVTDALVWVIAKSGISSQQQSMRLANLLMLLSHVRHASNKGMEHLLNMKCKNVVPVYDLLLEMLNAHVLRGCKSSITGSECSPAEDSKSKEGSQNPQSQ

Estrogen receptor beta [10] = molecular target: T1, Estrogen receptor beta
Leucine aminopeptidase = molecular target: T2, Leucine aminopeptidase (Plasmodium falciparum 3D7, UniProt Q8IL11); assay: P. falciparum M17LAP inhibitors, primary screen, biochemical, fluorogenic H-Leu-NHMec substrate, 1536-well (AID 1619); assay type: functional
T2 sequence (Q8IL11 whole entry): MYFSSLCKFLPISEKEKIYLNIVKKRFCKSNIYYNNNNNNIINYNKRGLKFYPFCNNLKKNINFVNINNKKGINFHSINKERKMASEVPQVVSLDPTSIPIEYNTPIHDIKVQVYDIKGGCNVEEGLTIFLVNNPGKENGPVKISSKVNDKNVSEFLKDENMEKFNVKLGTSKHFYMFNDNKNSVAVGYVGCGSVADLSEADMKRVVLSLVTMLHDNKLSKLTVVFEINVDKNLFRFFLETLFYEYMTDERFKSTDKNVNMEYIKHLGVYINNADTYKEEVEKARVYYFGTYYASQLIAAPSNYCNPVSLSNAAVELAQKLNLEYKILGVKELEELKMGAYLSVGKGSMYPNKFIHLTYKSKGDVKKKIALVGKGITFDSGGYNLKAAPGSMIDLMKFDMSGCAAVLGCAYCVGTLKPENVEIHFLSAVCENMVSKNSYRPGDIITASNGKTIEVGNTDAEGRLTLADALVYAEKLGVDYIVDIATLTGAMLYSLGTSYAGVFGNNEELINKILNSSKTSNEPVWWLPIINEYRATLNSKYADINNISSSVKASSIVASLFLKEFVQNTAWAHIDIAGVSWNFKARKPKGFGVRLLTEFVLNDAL

Aspartyl aminopeptidase = molecular target: T3, Aspartyl aminopeptidase (Plasmodium falciparum 3D7, UniProt Q8I2J3); assay: Counterscreen for inhibitors of M1 and M17 aminopeptidases: QFRET-based biochemical high throughput dose response assay for inhibitors of the Plasmodium falciparum M18 Aspartyl Aminopeptidase (PFM18AAP). [Related PubChem assays: 1619 (Screening assay (M17LAP inhibitors).), 1445 (Screening assay (M1AAP inhibitors).)]
T3 sequence (Q8I2J3 whole entry): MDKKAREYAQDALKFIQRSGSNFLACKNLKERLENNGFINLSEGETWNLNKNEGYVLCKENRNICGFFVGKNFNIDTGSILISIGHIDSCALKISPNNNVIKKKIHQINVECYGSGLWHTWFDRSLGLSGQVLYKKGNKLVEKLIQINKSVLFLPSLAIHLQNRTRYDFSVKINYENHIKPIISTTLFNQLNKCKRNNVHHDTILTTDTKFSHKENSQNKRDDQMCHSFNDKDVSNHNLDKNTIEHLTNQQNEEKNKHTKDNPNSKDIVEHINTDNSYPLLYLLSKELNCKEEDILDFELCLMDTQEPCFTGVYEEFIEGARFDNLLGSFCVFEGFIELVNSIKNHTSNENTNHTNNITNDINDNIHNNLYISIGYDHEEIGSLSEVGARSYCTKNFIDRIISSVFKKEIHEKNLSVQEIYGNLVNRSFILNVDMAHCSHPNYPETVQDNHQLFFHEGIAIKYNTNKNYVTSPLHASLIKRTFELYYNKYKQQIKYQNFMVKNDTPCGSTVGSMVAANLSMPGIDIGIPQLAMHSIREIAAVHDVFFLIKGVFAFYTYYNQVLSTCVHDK

Procathepsin L = Procathepsin L (Homo sapiens, UniProt P07711); assay: CTSL1 protease inhibition – biochemical, QFRET, 1536-well, counter-screen for M1/M17 aminopeptidase inhibitor project, dose response (AID 2214)
Sequence of Procathepsin L (P07711 whole entry): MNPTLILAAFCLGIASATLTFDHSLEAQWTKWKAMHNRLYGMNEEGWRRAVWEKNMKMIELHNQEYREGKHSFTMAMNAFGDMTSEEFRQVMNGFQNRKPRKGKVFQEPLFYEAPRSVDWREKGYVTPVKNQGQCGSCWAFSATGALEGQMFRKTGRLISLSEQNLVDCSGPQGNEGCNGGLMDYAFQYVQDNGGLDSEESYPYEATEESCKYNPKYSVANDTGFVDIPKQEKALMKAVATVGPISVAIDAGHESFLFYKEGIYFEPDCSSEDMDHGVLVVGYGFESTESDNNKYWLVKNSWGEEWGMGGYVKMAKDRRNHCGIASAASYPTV

[11] = molecular target: T4, Mannose-6-phosphate isomerase (Homo sapiens, UniProt P34949); assay: MPI inhibition at elevated mannose 6-phosphate – biochemical, fluorescence intensity, high mannose 6-phosphate, primary screen (AID 1220)
T4 sequence (P34949 whole entry): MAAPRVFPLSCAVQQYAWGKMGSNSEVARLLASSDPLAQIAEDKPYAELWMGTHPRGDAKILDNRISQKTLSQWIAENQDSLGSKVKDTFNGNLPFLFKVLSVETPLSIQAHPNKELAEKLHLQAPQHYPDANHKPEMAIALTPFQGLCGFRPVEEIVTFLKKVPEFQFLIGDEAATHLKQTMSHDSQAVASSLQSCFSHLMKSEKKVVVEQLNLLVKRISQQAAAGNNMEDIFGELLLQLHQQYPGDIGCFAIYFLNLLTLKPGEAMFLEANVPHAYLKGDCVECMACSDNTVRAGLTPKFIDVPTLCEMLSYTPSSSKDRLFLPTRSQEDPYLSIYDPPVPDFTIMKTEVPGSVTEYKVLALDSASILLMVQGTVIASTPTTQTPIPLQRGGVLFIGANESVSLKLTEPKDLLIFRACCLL

Ephrin type-A receptor 4 = Ephrin type-A receptor 4 (Mus musculus, UniProt Q03137); assay: EphA4 ligand-binding antagonists – biochemical, colorimetric, mouse EphA4, primary screen (AID 689); assay type: functional
Sequence of Ephrin type-A receptor 4 (Q03137 whole entry): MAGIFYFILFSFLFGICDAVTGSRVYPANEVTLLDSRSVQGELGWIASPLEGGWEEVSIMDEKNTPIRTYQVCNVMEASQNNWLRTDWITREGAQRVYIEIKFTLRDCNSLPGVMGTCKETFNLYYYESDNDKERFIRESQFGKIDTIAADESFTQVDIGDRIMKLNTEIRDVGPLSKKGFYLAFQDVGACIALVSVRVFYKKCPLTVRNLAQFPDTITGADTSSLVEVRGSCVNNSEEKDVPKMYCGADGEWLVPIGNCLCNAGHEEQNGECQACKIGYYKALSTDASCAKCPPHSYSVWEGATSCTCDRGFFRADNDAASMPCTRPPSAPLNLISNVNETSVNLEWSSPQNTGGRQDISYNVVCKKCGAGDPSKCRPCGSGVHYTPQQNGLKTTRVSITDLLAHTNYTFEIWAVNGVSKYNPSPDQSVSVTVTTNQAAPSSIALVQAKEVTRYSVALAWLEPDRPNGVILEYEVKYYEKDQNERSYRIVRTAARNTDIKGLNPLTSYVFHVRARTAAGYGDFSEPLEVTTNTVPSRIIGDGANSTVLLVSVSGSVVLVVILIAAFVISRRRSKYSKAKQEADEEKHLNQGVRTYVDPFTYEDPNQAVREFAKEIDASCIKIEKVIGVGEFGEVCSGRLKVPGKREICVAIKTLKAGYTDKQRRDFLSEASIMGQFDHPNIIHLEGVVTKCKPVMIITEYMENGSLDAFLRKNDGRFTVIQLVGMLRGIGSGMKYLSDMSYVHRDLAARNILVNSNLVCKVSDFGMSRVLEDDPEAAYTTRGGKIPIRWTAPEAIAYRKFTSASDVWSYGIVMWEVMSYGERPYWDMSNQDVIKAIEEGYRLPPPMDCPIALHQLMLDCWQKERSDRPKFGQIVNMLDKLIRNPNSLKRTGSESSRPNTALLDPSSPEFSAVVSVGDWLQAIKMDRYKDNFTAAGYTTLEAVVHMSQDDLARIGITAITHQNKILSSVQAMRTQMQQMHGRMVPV

[12] = molecular target: Protein-tyrosine kinase 2-beta (Homo sapiens, UniProt Q14289);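 also: potency of inhibitors of PYK2 kinase phosphorylation of poly-GT substrate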
Genome polyprotein = Genome polyprotein (Hepatitis C virus, UniProt Q2Q167); assay: disruption of hepatitis C core self-association – biochemical, TR-FRET, dose response (AID 2159); design: species or system Hepacivirus hominis;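 also: blocks dimerization of HCV core protein measured by TR-FRET between tagged core106 pairs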
Sequence of Genome polyprotein (Q2Q167 whole entry): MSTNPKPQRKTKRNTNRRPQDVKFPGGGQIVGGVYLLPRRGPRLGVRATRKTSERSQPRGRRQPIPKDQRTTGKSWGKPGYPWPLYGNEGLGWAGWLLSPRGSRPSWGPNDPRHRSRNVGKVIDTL

[13] = molecular target: T4, Mannose-6-phosphate isomerase; assay: MPI enzyme activity inhibition – biochemical, fluorescence intensity, coupled assay, primary screen (AID 1209)
cells = assay type: functional, cell-based
[14] = molecular target: Glutathione-S-transferase (Schistosoma japonicum, UniProt Q26513); assay: GST-antibody interaction or FRET quenching – biochemical, TR-FRET, artefact control for Vif-APOBEC3G degradation inhibitor project, dose response (AID 1117362); assay type: functional
Sequence of Glutathione-S-transferase (Q26513 whole entry): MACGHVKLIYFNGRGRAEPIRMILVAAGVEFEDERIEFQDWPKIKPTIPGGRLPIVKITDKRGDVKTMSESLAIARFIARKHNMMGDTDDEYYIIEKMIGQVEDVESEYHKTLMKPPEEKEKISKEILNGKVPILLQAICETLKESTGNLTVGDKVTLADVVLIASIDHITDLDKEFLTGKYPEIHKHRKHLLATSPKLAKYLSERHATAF

Nonstructural protein 1 = Nonstructural protein 1 (Influenza A virus, UniProt Q194T2); assay type: functional, Influenza A virus (A/California/07/2009(H1N1))
Sequence of Nonstructural protein 1 (Q194T2 whole entry): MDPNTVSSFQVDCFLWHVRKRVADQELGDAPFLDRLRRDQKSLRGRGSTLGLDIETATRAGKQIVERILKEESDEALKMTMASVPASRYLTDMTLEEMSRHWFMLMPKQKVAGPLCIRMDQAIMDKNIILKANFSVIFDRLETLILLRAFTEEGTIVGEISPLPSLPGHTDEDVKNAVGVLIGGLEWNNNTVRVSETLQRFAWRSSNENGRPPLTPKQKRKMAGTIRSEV

[15] = molecular target: T5, Nuclear receptor subfamily 0 group B member 1 (Homo sapiens, UniProt P51843); assay type: functional, cell-based;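 also: HEK293T cells transfected with SF-1 and DAX-1 plus StAR promoter luciferase reporter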
T5 sequence (P51843 whole entry): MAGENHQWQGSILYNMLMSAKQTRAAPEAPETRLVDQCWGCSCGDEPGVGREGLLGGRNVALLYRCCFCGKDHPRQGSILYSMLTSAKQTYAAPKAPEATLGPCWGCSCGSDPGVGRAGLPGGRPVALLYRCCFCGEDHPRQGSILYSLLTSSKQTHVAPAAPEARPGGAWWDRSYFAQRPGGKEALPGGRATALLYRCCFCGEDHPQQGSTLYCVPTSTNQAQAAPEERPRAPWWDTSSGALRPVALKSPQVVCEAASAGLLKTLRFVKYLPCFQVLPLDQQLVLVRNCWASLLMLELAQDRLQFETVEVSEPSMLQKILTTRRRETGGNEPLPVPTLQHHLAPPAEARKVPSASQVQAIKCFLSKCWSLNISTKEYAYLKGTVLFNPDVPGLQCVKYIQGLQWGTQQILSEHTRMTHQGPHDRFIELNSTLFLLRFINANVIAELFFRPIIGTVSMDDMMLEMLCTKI

Protein Tat = Protein Tat (Human immunodeficiency virus type 1 group M subtype B (isolate HXB2)(HIV-1), UniProt P04608); assay type: functional;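 also: tat binding to TAR RNA read out by fluorescence polarization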
[16] = IC50 of insulin release inhibition, rat insulinoma INS-1E line, 5 mM glucose, cell-based (AID 1117331); assay type: functional
[17] = Potency on glucagon-like peptide 1 release, dose-response in NCI-H716 cell line, half maximal inhibitory concentration (AID 1117344); assay type: functional, cell-based
Large T antigen = Large T antigen (Simian virus 40, UniProt P03070); assay type: functional, Betapolyomavirus macacae;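 also: Confirmatory-stage PubChem screen for compounds that inhibit SV40 T antigen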
Sequence of Large T antigen (P03070 whole entry): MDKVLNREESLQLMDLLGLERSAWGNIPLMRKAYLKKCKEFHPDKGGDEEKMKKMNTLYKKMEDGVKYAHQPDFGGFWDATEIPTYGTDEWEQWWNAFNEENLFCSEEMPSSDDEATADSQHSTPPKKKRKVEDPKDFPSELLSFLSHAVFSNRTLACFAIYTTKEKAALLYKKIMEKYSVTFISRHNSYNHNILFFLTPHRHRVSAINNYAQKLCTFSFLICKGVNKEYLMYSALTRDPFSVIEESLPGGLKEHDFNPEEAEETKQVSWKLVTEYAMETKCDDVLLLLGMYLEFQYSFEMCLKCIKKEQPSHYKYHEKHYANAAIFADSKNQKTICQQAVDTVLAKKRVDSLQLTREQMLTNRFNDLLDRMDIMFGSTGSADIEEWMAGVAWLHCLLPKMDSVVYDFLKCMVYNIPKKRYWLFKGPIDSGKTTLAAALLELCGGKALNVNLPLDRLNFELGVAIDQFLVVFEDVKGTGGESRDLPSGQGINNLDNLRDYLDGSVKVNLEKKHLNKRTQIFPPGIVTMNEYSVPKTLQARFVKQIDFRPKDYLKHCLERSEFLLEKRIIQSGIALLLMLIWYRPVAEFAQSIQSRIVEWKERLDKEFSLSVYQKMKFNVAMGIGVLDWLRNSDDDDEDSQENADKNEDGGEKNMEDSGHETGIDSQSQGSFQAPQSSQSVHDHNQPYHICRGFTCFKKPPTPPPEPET

[18] = glucagon-like peptide-1 release potency in STC-1, concentration-response, half-maximal inhibitory concentration in the STC-1 line (AID 1117345); assay type: functional, cell-based
[19] = molecular target: Solute carrier family 12 member 2/member 5 (Homo sapiens, UniProt P55011+Q9H2X9); assay: KCC2 and NKCC1 inhibition by rubidium flux, cell-based, NKCC1 counter-screen (AID 1734); assay type: functional, HEK293
[20] = molecular target: ADP-ribosylation factor GTPase-activating protein 1 (Rattus norvegicus, UniProt Q62848); assay: Fluorescence polarization-based biochemical high throughput dose response screening assay to identify inhibitors of ADP-ribosylation factor GTPase activating protein 1 (ARFGAP1).; assay type: functional
[21] = molecular target: Photoreceptor-specific nuclear receptor (Homo sapiens, UniProt Q9Y5X4); assay: ligands suppressing NR2E3 nuclear receptor activity – biochemical, TR-FRET, dose response (AID 463256); assay type: functional
[22] = molecular target: Peroxisome proliferator-activated receptor gamma/Nuclear receptor corepressor 2 (Homo sapiens, UniProt P37231+Q9Y618); assay: Counterscreen for NR2E3 inverse agonists: TR-FRET-based biochemical high throughput dose response assay to identify inverse agonists of the interaction between peroxisome proliferator-activated receptor gamma (PPARg) and nuclear receptor co-repressor 2 (NCOR2).; assay type: functional
[23] = molecular target: Mitogen-activated protein kinase 10 (Homo sapiens, UniProt P53779); assay: Dose response biochemical screening assay for inhibitors of c-Jun N-Terminal Kinase 3 (JNK3). [Related pubchem assays: 746 ]
Sequence of Mitogen-activated protein kinase 10 (P53779 whole entry): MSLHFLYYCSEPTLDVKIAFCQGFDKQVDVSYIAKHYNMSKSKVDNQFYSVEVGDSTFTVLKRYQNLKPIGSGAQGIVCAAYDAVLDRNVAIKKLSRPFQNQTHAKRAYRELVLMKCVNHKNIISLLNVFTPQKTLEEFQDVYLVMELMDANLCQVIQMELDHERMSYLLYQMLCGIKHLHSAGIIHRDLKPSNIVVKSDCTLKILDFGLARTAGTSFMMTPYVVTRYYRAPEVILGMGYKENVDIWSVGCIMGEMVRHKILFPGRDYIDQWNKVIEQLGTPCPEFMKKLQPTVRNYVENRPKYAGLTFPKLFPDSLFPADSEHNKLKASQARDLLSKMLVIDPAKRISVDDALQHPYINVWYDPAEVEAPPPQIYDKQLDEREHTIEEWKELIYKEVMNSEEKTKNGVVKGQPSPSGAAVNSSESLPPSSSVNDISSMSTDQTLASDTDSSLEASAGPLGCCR

[24] = M. tuberculosis H37Rv growth inhibitors, H37Rv strain (AID 1626); assay type: functional

SMILES: Clc1ccc(CN2CCO[C@H](CCc3ccccc3)C2)cc1
- IC50 (D(1A) dopamine receptor): 20 µM (inactive)
- IC50 (D(3) dopamine receptor): 20 µM (inactive)
- IC50 (D(2) dopamine receptor): 20 µM (inactive)
- IC50 (D(1B) dopamine receptor): 20 µM (inactive)

SMILES: O=C(Oc1ccccc1[N+](=O)[O-])c1sc2ccccc2c1Cl
- IC50 (NADPH oxidase 1): > 17 µM (not active)

SMILES: CC(=O)Nc1ccc(SCC(=O)c2cc(C)n(CCc3cccs3)c2C)cc1
- EC50 [1]: 2 µM (active)

SMILES: CCCNC(=O)N1[C@H](C#N)[C@H](c2ccc(C#Cc3ccc(F)cc3)cc2)[C@H]1CO
- AC50 [2]: 0.0156 µM (active)
- AC50 [3]: 22.3 µM (active)
- AC50 [4]: < 0.3 µM (active)
- AC50 [5]: 0.016 µM (active)
- AC50 [6]: 7.89 µM (active)
- AC50 [7]: 0.00982 µM (active)
- AC50 [8]: 24.7 µM (active)

SMILES: Cc1ccc(-c2nnc(CSc3nc4cc5c(cc4cc3C)OCO5)o2)cc1
- IC50 (Estrogen receptor beta [9]): 0.0359 µM (not active)
- IC50 (Estrogen receptor beta [10]): > 50 µM (not active)

SMILES: Cc1ccc(NC(=O)CSc2nnc(C)c(=O)[nH]2)cc1C
- IC50 (Leucine aminopeptidase): 3.51 µM (active)
- IC50 (Aspartyl aminopeptidase): > 73.5 µM (not active)
- IC50 (Procathepsin L): > 59.6 µM (not active)

SMILES: C=CCn1c(SCC(=O)N2N=C(c3ccco3)CC2c2ccco2)nnc1-c1ccncc1 (stereo not drawn)
- IC50 [11]: > 50 µM (not active)

SMILES: CCOc1ccc(S(=O)(=O)N(CC(=O)N/N=C/c2ccc(-c3ccc([N+](=O)[O-])cc3)o2)c2ccccc2)cc1
- IC50 (Ephrin type-A receptor 4): 45.6 µM (active)
- IC50 [12]: 15.8 µM (not active)
- IC50 (Genome polyprotein): > 49.8 µM (not active)
- IC50 [13]: 36.4 µM (active)

SMILES: CCCn1cnc2cc(NCc3ccccn3)ccc21
- IC50 (cells): > 67.5 µM (inactive)
- IC50 [14]: > 100 µM (active)
- IC50 (Nonstructural protein 1): > 100 µM (active)
- IC50 [15]: > 67.5 µM (inactive)
- IC50 (Protein Tat): > 100 µM (active)

SMILES: Oc1ccc(O)cc1 [HYDROQUINONE]
- IC50 [16]: > 33.3 µM (inactive)
- IC50 [17]: > 40 µM (inactive)
- IC50 (Large T antigen): 7.76 µM (active)
- IC50 [18]: 1.01 µM (active)

SMILES: O=C(Cn1cnc2c(nnn2Cc2ccc(F)cc2)c1=O)N1CCCc2ccccc21
- IC50 [19]: 1.3 µM (active)

SMILES: Cc1c(C(=O)Nc2ccc(-n3cnnn3)cc2)oc2ccccc12
- IC50 [20]: 78.5 µM (inactive)
- IC50 [21]: 8.46 µM (active)
- IC50 [22]: 7.48 µM (active)

SMILES: N#Cc1c(N)nc2c(c1-c1ccco1)CCCCC2
- IC50 [23]: > 93.1 µM (not active)

SMILES: O=C(Oc1ccc2ccc(O)cc2c1)C1CCCCC1
- IC50 [24]: > 100 µM (active)
